Earlier results, collected in patent publication US5702721A (LTS Lohmann Therapie-Systeme GmbH & Co. KG, priority 1989, dated 1997).

Settings: supersaturated solution resulting on evaporation of the highly volatile component of a mixture of volatile and non-volatile solvents

Compound | skin penetration / resorption intensification
C[C@]12C=CC(=O)C=C1[C@@H](F)C[C@H]1[C@@H]3C[C@@H](O)[C@](O)(C(=O)CO)[C@@]3(C)C[C@H](O)[C@@]12F [fluocinolone] | higher skin penetration
COC(=O)C1=C(C)NC(C)=C(C(=O)OC)C1c1ccccc1[N+](=O)[O-] [nifedipine] | confirmed these effects
